Measurements published in ChEMBL document CHEMBL6083208, “Integrating amino acids into Bcr-Abl inhibitors: design, synthesis, biological evaluation, and in silico studies” (RSC Med Chem, 2024).
Calls of active or inactive are those of the source. The rule behind the calls is not given here.

What was measured:
[1] = Inhibition of Bcr-Abl T315Ialpha mutant (unknown origin) using Abltide as substrate incubated for 1 hr by luminescence based ADP-glo assay; design: species or system Homo sapiens
K562 [2] = assay: Induction of apoptosis in human K562 cells assessed as necrotic cells at 10 uM measured after 48 hrs by annexin-V/FITC and propidium iodide double staining based flow cytometry analysis (reference value: 1.05%); format: functional
[3] = target: T1, Bcr/Abl fusion protein (Homo sapiens) (UniProt P00519+P11274); assay: Inhibition of wild type BCR-ABL in human K562 cells assessed as inhibition of STAT5 phosphorylation level at 20 uM measured after 48 hrs by Western blot analysis; format: cell-based
T1 sequence (P00519 whole entry, looked up, the tested form may be a part): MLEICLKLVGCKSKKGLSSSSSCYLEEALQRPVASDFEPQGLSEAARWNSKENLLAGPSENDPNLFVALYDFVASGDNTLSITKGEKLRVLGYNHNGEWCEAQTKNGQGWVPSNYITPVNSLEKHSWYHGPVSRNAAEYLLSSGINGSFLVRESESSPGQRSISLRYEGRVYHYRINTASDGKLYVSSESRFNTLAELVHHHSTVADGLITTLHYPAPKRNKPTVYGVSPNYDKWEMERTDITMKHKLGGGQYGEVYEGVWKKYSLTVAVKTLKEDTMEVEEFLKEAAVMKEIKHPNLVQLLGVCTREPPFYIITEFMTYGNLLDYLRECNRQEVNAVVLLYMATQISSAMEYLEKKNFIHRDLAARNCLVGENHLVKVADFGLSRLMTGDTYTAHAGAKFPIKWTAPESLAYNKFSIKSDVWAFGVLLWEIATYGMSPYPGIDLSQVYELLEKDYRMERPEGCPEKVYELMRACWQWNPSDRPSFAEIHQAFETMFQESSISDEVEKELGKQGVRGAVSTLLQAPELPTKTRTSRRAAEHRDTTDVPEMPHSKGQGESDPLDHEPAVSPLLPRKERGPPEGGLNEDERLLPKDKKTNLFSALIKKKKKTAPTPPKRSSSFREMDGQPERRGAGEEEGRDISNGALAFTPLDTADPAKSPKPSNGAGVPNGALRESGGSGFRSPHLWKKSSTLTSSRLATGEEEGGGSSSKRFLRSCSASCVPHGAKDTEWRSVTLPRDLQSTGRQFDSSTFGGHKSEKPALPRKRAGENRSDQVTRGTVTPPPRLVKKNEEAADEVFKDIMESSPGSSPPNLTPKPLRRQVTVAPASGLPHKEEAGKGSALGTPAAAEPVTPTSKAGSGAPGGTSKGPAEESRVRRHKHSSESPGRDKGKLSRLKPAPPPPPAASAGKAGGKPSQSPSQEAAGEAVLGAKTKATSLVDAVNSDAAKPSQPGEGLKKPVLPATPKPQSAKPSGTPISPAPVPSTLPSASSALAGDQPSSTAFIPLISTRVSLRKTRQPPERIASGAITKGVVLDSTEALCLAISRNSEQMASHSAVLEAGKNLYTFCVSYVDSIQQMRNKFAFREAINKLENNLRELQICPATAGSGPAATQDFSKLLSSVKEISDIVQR
T1 sequence (P11274 whole entry, looked up, the tested form may be a part): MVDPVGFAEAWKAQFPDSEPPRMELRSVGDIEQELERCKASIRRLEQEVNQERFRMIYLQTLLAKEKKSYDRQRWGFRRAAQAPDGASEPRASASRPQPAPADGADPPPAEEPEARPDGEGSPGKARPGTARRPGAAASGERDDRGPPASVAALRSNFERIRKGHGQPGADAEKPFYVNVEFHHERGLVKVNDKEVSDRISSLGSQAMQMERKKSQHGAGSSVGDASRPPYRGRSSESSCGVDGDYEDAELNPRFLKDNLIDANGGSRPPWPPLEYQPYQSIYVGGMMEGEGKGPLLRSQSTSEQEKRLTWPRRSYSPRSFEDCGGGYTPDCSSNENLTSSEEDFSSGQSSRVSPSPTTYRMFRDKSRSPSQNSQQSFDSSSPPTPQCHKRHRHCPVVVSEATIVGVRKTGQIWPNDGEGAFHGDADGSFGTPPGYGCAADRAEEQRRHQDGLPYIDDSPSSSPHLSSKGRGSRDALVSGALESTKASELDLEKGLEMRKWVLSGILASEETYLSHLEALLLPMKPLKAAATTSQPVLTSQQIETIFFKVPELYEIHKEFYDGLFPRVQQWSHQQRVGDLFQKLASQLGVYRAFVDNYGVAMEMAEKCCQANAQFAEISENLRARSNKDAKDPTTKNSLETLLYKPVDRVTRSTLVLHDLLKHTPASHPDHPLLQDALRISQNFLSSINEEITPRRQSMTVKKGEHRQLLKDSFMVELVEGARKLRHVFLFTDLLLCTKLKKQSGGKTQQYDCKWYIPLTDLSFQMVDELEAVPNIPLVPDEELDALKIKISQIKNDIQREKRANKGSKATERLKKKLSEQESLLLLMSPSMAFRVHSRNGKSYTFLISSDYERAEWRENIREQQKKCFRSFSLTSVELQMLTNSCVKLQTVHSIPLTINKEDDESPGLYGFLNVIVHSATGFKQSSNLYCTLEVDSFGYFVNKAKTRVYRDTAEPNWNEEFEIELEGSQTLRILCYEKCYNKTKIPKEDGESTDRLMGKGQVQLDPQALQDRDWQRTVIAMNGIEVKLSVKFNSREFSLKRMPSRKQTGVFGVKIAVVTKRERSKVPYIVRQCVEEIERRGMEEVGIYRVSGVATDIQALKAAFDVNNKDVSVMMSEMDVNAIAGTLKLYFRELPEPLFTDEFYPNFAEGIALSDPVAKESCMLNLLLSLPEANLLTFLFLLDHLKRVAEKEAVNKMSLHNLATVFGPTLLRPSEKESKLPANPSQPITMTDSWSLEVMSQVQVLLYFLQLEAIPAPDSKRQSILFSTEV

K562 [4] = assay: Induction of apoptosis in human K562 cells assessed as necrotic cells at 15 uM measured after 48 hrs by annexin-V/FITC and propidium iodide double staining based flow cytometry analysis (reference value: 1.05%); format: functional
K562 [5] = assay: Induction of apoptosis in human K562 cells assessed as necrotic cells at 1 uM measured after 48 hrs by annexin-V/FITC and propidium iodide double staining based flow cytometry analysis (reference value: 1.05%); format: functional
THP-1 = assay: Antiproliferative activity against human THP-1 cells after 48 hrs by MTT assay; format: functional; design: concentration or dose not given beside the values
Bcr/Abl fusion protein = Bcr/Abl fusion protein (Homo sapiens, UniProt P00519); assay: Inhibition of wild type Bcr-Abl (unknown origin) using Abltide as substrate incubated for 1 hr by luminescence based ADP-glo assay; format: protein assay
Bcr/Abl fusion protein, sequence (P00519 whole entry, the tested form may be a part): as the sequence (P00519 whole entry, looked up, the tested form may be a part) above
Bcr/Abl fusion protein, sequence (P11274 whole entry, further chain, the tested form may be a part): as the sequence (P11274 whole entry, looked up, the tested form may be a part) above

K562 [6] = assay: Induction of apoptosis in human K562 cells assessed as viable cells at 15 uM measured after 48 hrs by annexin-V/FITC and propidium iodide double staining based flow cytometry analysis (reference value: 92.67%); format: functional; settings: read-out: Activity
BaF3 [7] = assay: Antiproliferative activity against mouse BaF3 cells harbouring Bcr-Abl T315I assessed of cell viability at 10 uM incubated for 72 hrs by Celltiter-glo luminescent cell viability assay relative to control; format: functional
K562 [8] = assay: Induction of cell cycle arrest in human K562 cells assessed as increase in accumulation of cells at G2/M phase at 1 to 20 uM measured after 48 hrs by PI staining based flow cytometry analysis; format: functional; settings: dose 1-20 µM
K562 [9] = assay: cells; settings: Homo sapiens, K562, 48 h
K562 [10] = assay: Induction of cell cycle arrest in human K562 cells assessed as increase in accumulation of cells at G0/G1 phase at 1 to 20 uM measured after 48 hrs by PI staining based flow cytometry analysis; format: functional; settings: dose 1-20 µM
HEK293 = assay: Antiproliferative activity against HEK293 cells after 48 hrs by MTT assay; format: toxicity, cell-based; design: concentration or dose not given beside the values; settings: human, hek293, 48 h
[11] = target: T1, Bcr/Abl fusion protein (Homo sapiens); assay: Inhibition of wild type BCR-ABL in human K562 cells assessed as inhibition of STAT5 phosphorylation level measured after 48 hrs by Western blot analysis; format: cell-based; settings: dose 0.1-15 µM
BaF3 [12] = assay: Antiproliferative activity against mouse BaF3 cells harbouring Bcr-Abl T315I assessed of cell viability at 30 uM incubated for 72 hrs by Celltiter-glo luminescent cell viability assay relative to control; format: functional
K562 [13] = assay: Induction of cell cycle arrest in human K562 cells assessed as reduction in accumulation of cells at S phase at 1 to 20 uM measured after 48 hrs by PI staining based flow cytometry analysis; format: functional; settings: dose 1-20 µM
K562 [14] = assay: Induction of apoptosis in human K562 cells assessed as viable cells at 1 uM measured after 48 hrs by annexin-V/FITC and propidium iodide double staining based flow cytometry analysis (reference value: 92.67%); format: functional; settings: read-out: Activity
K562 [15] = assay: Induction of apoptosis in human K562 cells assessed as early apoptotic cells at 10 uM measured after 48 hrs by annexin-V/FITC and propidium iodide double staining based flow cytometry analysis (reference value: 3.57%); format: functional
K562 [16] = assay: Induction of apoptosis in human K562 cells assessed as late apoptotic cells at 1 uM measured after 48 hrs by annexin-V/FITC and propidium iodide double staining based flow cytometry analysis (reference value: 2.72%); format: functional
K562 [17] = assay: Induction of apoptosis in human K562 cells assessed as late apoptotic cells at 15 uM measured after 48 hrs by annexin-V/FITC and propidium iodide double staining based flow cytometry analysis (reference value: 2.72%); format: functional
[18] = target: T1, Bcr/Abl fusion protein (Homo sapiens); assay: Inhibition of wild type BCR-ABL in human K562 cells assessed as inhibition of Bcr-Abl phosphorylation level at 20 uM measured after 48 hrs by Western blot analysis; format: cell-based
K562 [19] = assay: Induction of apoptosis in human K562 cells assessed as late apoptotic cells at 10 uM measured after 48 hrs by annexin-V/FITC and propidium iodide double staining based flow cytometry analysis (reference value: 2.72%); format: functional
K562 [20] = assay: Induction of apoptosis in human K562 cells assessed as early apoptotic cells at 15 uM measured after 48 hrs by annexin-V/FITC and propidium iodide double staining based flow cytometry analysis (reference value: 3.57%); format: functional
K562 [21] = assay: Induction of apoptosis in human K562 cells assessed as viable cells at 10 uM measured after 48 hrs by annexin-V/FITC and propidium iodide double staining based flow cytometry analysis (reference value: 92.67%); format: functional; settings: read-out: Activity
[22] = target: T1, Bcr/Abl fusion protein (Homo sapiens); assay: Inhibition of wild type BCR-ABL in human K562 cells assessed as inhibition of Bcr-Abl phosphorylation level at 1 uM measured after 48 hrs by Western blot analysis; format: cell-based
BaF3 [23] = assay: Antiproliferative activity against mouse BaF3 cells harbouring Bcr-Abl T315I assessed of cell viability at 2 uM incubated for 72 hrs by Celltiter-glo luminescent cell viability assay relative to control; format: functional
K562 [24] = assay: Induction of apoptosis in human K562 cells assessed as early apoptotic cells at 1 uM measured after 48 hrs by annexin-V/FITC and propidium iodide double staining based flow cytometry analysis (reference value: 3.57%); format: functional

SMILES | IC50 [1] | IC50 (Bcr/Abl fusion protein) | IC50 (K562 [9]) | Activity (THP-1) | inhibition at 10 µM (BaF3 [7]) | Activity (HEK293) | inhibition at 30 µM (BaF3 [12]) | inhibition at 2 µM (BaF3 [23]) | further results
CC(=O)Nc1cc(-c2ccc(C(=O)N[C@H](C(=O)Nc3ccc(Cl)c(C(F)(F)F)c3)C(C)(C)C)cc2)ccn1 | 180 nM | 9.9 nM | 3.31 nM | 68% | 31.8% | 88% | 99.8% | 4.64% | –
CC(C)(C)C(=O)Nc1ccc(-c2cccc(C(=O)N[C@H](C(=O)Nc3ccc(Cl)c(C(F)(F)F)c3)C(C)(C)C)c2)cn1 | 351 nM | 26.5 nM | 0.97 nM | 73% | 100% | 81% | 98.1% | 99.9% | –
CC(C)(C)OC[C@H](NC(=O)c1ccc(-c2ccnc(N)c2)cc1)C(=O)Nc1ccc(Cl)c(C(F)(F)F)c1 | 144 nM | 0.87 nM | 3.02 nM | 56% | 25.5% | 94% | 99.8% | 0.7% | –

Further lines, with some results ahead:

IC50 [1] | IC50 (Bcr/Abl fusion protein) | IC50 (K562 [9]) | SMILES | Activity (THP-1) | inhibition at 10 µM (BaF3 [7]) | Activity (HEK293) | inhibition at 30 µM (BaF3 [12]) | inhibition at 2 µM (BaF3 [23]) | further results
48 nM | 1.44 nM | 0.61 nM | CC(C)(C)[C@H](NC(=O)c1cccc(-c2ccc(NS(C)(=O)=O)nc2)c1)C(=O)Nc1ccc(Cl)c(C(F)(F)F)c1 | 65% | 100% | 100% | 99.6% | 10% | Activity (K562 [2]): 0.4%; inhibition [3]: Active; Activity (K562 [4]): 0.28%; Activity (K562 [5]): 0.17%; viability at 15 µM (K562 [6]): 82.5%; Activity (K562 [8]): Active; Activity (K562 [10]): Active; inhibition [11]: Dose-dependent-effect; Activity (K562 [13]): Active; viability at 1 µM (K562 [14]): 88.2%; Activity (K562 [15]): 8.2%; Activity (K562 [16]): 4.45%; Activity (K562 [17]): 8.48%; inhibition [18]: Active; Activity (K562 [19]): 8.64%; Activity (K562 [20]): 8.69%; viability at 10 µM (K562 [21]): 82.8%; inhibition [22]: Active; Activity (K562 [24]): 7.15%
66.9 nM | 3.93 nM | 0.93 nM | CC(C)(C)[C@H](NC(=O)c1ccc(-c2ccnc(NS(C)(=O)=O)c2)cc1)C(=O)Nc1ccc(Cl)c(C(F)(F)F)c1 | 100% | 36.1% | 81% | 100% | 8.95% | –
